Test results reported in patent US20080031982A1 (Metaproteomics, LLC, priority 2006, published 2008).

Legend:
Experiment in all cases: KinaseProfiler Assay
MINK = MINK (Homo sapiens, UniProt Q8N4C8)
Fes = Fes (Homo sapiens, UniProt P07332)
AMPK = system: AMPK
ZIPK = ZIPK (Homo sapiens, UniProt O43293)
CDK2/cyclinA = CDK2/cyclinA (Homo sapiens, UniProt P24941)
CK1(y) = system: CK1(y)
IGF-1R = IGF-1R (Homo sapiens, UniProt P08069)
CDK9/cyclin T1 = CDK9/cyclin T1 (Homo sapiens, UniProt P50750)
CDK5/p35 = CDK5/p35 (Homo sapiens, UniProt Q00535)
Sequence of CDK5/p35 (Q00535 whole entry): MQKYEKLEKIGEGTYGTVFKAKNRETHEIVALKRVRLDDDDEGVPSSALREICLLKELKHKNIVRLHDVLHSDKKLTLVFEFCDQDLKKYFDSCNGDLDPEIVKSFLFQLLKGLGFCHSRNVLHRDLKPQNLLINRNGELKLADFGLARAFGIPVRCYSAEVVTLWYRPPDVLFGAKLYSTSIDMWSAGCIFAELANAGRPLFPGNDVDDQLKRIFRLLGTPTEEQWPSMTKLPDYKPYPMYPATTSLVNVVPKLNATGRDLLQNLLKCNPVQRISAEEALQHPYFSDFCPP
Sequence of CDK5/p35 (Q15078 whole entry partner): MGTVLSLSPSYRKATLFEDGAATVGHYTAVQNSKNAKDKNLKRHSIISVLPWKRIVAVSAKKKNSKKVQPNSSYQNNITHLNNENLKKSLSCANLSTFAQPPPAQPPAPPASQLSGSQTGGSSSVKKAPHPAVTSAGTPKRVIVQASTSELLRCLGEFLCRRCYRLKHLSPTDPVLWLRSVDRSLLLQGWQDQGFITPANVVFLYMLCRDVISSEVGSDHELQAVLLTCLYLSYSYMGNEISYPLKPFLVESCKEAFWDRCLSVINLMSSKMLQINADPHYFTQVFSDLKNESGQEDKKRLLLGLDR

GSK3α = GSK3α (Homo sapiens, UniProt P49840)
Sequence of GSK3α (P49840 whole entry): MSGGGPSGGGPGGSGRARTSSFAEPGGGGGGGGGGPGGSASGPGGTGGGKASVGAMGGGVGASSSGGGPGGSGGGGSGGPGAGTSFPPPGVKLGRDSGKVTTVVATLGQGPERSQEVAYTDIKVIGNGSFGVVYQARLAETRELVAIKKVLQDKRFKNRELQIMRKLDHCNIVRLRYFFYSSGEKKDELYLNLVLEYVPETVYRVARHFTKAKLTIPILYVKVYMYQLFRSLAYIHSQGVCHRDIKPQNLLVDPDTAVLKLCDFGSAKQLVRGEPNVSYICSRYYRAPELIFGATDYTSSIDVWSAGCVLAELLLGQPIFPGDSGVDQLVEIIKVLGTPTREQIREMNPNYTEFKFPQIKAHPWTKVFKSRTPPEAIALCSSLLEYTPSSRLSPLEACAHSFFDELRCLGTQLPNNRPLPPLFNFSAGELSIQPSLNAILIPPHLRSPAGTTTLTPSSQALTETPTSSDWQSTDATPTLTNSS

IKKβ = molecular target: T1, IKKβ (Homo sapiens, UniProt O14920)
T1 sequence (O14920 1-756): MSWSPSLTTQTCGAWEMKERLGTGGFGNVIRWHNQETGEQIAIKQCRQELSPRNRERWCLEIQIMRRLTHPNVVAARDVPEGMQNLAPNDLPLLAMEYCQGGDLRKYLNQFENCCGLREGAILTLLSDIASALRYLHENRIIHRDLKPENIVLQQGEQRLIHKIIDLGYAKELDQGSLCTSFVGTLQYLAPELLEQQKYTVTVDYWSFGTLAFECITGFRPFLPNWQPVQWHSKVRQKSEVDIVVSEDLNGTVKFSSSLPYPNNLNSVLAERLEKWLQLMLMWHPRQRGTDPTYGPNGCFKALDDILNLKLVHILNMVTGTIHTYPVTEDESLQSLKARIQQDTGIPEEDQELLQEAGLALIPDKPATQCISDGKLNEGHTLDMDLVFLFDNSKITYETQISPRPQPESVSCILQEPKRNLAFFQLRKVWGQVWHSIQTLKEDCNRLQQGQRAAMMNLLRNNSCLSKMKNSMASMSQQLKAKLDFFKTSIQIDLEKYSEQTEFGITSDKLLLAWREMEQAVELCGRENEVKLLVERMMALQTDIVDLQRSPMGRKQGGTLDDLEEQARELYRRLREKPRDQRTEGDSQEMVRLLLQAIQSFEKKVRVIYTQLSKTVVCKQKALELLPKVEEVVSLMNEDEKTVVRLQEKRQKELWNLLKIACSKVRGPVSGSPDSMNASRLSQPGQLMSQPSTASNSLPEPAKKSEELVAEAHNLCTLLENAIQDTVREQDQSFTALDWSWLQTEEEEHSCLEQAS

TBK1 = molecular target: T2, TBK1 (Homo sapiens, UniProt Q9UHD2)
T2 sequence (Q9UHD2 1-729): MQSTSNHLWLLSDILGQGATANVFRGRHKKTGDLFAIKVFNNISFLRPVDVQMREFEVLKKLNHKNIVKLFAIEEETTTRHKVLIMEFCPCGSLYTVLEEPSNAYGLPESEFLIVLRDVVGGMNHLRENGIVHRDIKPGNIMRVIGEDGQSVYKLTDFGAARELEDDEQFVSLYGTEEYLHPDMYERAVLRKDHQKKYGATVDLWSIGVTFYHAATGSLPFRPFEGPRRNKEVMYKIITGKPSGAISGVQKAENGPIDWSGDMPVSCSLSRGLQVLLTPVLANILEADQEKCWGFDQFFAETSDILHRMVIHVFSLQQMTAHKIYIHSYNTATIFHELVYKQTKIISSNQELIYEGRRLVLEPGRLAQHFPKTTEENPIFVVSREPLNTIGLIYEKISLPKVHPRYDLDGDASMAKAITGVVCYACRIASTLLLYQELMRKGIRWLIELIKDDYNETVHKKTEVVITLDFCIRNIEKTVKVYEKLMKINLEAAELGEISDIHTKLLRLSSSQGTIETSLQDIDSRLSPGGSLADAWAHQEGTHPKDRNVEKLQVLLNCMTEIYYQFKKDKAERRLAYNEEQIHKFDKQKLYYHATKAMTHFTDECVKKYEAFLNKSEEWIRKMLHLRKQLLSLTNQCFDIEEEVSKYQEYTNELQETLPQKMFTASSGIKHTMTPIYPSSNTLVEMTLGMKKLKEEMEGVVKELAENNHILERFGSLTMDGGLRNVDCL

CDK1/cyclinB = CDK1/cyclinB (Homo sapiens, UniProt P06493)

Sequence of MINK (Q8N4C8 whole entry): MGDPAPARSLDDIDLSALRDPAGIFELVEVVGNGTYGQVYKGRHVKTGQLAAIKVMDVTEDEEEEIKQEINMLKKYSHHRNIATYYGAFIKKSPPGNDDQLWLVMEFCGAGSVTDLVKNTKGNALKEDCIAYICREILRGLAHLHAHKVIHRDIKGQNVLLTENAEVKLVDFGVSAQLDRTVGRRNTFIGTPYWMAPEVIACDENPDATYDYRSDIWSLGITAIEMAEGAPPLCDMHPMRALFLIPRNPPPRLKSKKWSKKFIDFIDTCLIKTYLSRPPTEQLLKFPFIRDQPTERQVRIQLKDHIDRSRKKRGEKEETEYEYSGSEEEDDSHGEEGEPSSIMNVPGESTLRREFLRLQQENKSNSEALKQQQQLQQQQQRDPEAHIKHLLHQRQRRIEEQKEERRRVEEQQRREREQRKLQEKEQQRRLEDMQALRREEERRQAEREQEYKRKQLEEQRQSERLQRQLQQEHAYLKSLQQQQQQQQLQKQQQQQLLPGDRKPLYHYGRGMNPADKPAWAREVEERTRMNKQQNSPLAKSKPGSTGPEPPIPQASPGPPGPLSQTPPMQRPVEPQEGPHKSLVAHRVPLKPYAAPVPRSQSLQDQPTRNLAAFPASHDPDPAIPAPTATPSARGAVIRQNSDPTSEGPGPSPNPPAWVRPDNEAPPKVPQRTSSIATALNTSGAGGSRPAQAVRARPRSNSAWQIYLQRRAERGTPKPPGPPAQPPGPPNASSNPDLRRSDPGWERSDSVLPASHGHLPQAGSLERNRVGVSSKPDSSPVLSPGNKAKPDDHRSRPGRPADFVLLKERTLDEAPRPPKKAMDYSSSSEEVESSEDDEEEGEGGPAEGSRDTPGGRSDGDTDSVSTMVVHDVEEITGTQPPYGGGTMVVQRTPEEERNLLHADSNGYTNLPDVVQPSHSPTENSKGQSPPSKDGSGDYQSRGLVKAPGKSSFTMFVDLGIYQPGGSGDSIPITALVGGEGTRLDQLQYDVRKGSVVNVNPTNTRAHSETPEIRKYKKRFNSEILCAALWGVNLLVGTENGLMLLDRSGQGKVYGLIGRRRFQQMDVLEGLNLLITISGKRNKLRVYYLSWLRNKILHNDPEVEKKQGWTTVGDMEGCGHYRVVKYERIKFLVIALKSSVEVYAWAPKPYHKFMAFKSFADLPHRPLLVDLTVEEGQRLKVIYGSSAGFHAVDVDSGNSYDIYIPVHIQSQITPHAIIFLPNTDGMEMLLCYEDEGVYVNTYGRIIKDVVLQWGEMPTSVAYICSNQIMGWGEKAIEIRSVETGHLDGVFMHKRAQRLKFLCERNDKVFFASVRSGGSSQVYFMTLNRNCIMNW
Sequence of IGF-1R (P08069 31-1367): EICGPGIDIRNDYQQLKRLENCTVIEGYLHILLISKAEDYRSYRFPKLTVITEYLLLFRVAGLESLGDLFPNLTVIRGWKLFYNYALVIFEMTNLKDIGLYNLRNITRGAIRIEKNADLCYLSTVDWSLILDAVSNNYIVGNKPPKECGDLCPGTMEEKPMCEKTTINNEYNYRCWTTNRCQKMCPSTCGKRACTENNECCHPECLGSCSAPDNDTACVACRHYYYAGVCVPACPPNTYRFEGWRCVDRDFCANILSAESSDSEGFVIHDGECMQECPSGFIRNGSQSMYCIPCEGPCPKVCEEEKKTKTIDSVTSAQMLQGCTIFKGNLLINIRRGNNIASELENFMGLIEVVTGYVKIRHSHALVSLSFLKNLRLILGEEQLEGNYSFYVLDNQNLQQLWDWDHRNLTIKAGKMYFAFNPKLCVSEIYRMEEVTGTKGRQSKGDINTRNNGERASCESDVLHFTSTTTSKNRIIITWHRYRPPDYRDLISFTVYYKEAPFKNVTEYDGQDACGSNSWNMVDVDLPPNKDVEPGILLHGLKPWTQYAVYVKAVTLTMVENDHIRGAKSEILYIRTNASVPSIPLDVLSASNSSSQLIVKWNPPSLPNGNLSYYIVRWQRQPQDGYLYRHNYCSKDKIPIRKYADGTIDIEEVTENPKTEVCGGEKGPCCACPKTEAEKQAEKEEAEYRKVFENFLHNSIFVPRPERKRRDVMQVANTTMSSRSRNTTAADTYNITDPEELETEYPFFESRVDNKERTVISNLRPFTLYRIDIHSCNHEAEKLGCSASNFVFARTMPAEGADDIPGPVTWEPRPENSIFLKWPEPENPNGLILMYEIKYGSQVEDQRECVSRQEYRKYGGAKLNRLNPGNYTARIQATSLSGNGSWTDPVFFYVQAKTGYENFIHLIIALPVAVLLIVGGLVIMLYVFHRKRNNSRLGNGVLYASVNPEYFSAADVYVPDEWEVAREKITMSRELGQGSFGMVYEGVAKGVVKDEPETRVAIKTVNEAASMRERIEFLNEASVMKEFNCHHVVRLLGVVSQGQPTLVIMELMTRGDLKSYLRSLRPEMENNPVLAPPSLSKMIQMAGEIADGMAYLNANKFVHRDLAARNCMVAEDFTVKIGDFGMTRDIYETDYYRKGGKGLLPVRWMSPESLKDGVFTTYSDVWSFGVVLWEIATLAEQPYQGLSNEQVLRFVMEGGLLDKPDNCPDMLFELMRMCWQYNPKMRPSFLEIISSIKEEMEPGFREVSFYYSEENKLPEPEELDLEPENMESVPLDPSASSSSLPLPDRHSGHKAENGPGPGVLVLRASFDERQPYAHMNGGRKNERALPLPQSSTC
Sequence of ZIPK (O43293 whole entry): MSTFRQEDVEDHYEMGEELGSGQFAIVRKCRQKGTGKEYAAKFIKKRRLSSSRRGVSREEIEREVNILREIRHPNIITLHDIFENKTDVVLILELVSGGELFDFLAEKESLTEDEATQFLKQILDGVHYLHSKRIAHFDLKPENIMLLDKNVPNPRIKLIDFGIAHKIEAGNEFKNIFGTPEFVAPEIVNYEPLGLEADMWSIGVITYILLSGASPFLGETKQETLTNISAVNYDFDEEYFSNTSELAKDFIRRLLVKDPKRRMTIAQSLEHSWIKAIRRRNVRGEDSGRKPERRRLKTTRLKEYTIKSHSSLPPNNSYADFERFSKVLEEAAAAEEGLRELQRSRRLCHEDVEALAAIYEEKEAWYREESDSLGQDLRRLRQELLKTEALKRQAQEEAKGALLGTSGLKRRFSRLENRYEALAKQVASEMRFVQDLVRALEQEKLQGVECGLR
Sequence of Fes (P07332 whole entry): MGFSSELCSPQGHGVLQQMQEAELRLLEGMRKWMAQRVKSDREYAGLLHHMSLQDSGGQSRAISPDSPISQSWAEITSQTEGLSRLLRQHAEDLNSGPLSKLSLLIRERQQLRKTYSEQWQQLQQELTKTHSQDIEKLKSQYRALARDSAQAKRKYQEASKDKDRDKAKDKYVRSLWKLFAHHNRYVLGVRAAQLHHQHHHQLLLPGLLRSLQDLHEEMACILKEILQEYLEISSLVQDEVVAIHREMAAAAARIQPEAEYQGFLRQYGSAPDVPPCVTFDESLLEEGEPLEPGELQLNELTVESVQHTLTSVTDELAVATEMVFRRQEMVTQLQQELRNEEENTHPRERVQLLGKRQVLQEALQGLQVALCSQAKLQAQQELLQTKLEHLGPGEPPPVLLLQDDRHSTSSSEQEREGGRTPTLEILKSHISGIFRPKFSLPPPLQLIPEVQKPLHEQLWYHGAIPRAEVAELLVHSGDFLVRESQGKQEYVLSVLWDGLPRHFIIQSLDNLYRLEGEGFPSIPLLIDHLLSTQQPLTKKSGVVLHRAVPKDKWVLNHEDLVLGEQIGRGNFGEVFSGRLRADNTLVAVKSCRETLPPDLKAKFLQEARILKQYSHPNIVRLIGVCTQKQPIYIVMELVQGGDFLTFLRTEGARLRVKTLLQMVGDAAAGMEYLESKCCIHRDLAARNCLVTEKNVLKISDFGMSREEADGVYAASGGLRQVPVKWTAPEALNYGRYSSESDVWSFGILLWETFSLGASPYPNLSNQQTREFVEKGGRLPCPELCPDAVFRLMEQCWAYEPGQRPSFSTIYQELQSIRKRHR

Question: For `COc1cc(O)c(CC=C(C)C)c(O)c1C(=O)/C=C/c1ccc(O)cc1` [Xanthohumol, xanthohumol], which “Kinase activity, % of Control” value (MINK; 1 ug/ml) is on record?
Answer: 42 % of Control

Question: What about the “Kinase activity, % of Control” value (MINK; 5 ug/ml) of the same compound?
Answer: 10 % of Control

Question: And the “Kinase activity, % of Control” value (MINK; 25 ug/ml)?
Answer: 5 % of Control

Question: What about the “Kinase activity, % of Control” value (MINK; 50 ug/ml) of the same compound?
Answer: 7 % of Control

Question: And the “Kinase activity, % of Control” value (Fes; 1 ug/ml)?
Answer: 131 % of Control

Question: What about the “Kinase activity, % of Control” value (Fes; 5 ug/ml) of the same compound?
Answer: 106 % of Control

Question: What about the “Kinase activity, % of Control” value (Fes; 25 ug/ml) of the same compound?
Answer: 102 % of Control

Question: What about the “Kinase activity, % of Control” value (Fes; 50 ug/ml) of the same compound?
Answer: 26 % of Control

Question: What about the “Kinase activity, % of Control” value (AMPK; 1 ug/ml) of the same compound?
Answer: 122 % of Control

Question: And the “Kinase activity, % of Control” value (AMPK; 5 ug/ml)?
Answer: 113 % of Control

Question: And the “Kinase activity, % of Control” value (AMPK; 25 ug/ml)?
Answer: 90 % of Control

Question: And the “Kinase activity, % of Control” value (AMPK; 50 ug/ml)?
Answer: 81 % of Control

Question: What about the “Kinase activity, % of Control” value (ZIPK; 1 ug/ml) of the same compound?
Answer: 115 % of Control

Question: And the “Kinase activity, % of Control” value (ZIPK; 5 ug/ml)?
Answer: 74 % of Control

Question: What about the “Kinase activity, % of Control” value (ZIPK; 25 ug/ml) of the same compound?
Answer: 20 % of Control

Question: And the “Kinase activity, % of Control” value (ZIPK; 50 ug/ml)?
Answer: 70 % of Control

Question: And the “Kinase activity, % of Control” value (CDK2/cyclinA; 1 ug/ml)?
Answer: 107 % of Control

Question: And the “Kinase activity, % of Control” value (CDK2/cyclinA; 5 ug/ml)?
Answer: 96 % of Control

Question: And the “Kinase activity, % of Control” value (CDK2/cyclinA; 25 ug/ml)?
Answer: 57 % of Control

Question: What about the “Kinase activity, % of Control” value (CDK2/cyclinA; 50 ug/ml) of the same compound?
Answer: 6 % of Control

Question: And the “Kinase activity, % of Control” value (CK1(y); 1 ug/ml)?
Answer: 91 % of Control

Question: What about the “Kinase activity, % of Control” value (CK1(y); 5 ug/ml) of the same compound?
Answer: 63 % of Control

Question: And the “Kinase activity, % of Control” value (CK1(y); 25 ug/ml)?
Answer: 37 % of Control

Question: And the “Kinase activity, % of Control” value (CK1(y); 50 ug/ml)?
Answer: 9 % of Control

Question: And the “Kinase activity, % of Control” value (IGF-1R; 1 ug/ml)?
Answer: 107 % of Control

Question: And the “Kinase activity, % of Control” value (IGF-1R; 25 ug/ml)?
Answer: 129 % of Control

Question: And the “Kinase activity, % of Control” value (IGF-1R; 50 ug/ml)?
Answer: 139 % of Control

Question: What about the “Kinase activity, % of Control” value (CDK9/cyclin T1; 1 ug/ml) of the same compound?
Answer: 110 % of Control

Question: And the “Kinase activity, % of Control” value (CDK9/cyclin T1; 5 ug/ml)?
Answer: 107 % of Control

Question: And the “Kinase activity, % of Control” value (CDK9/cyclin T1; 25 ug/ml)?
Answer: 45 % of Control

Question: And the “Kinase activity, % of Control” value (CDK9/cyclin T1; 50 ug/ml)?
Answer: 31 % of Control

Question: And the “Kinase activity, % of Control” value (CDK5/p35; 1 ug/ml)?
Answer: 103 % of Control

Question: What about the “Kinase activity, % of Control” value (CDK5/p35; 5 ug/ml) of the same compound?
Answer: 102 % of Control

Question: And the “Kinase activity, % of Control” value (CDK5/p35; 25 ug/ml)?
Answer: 41 % of Control

Question: What about the “Kinase activity, % of Control” value (CDK5/p35; 50 ug/ml) of the same compound?
Answer: 44 % of Control

Question: And the “Kinase activity, % of Control” value (GSK3α; 1 ug/ml)?
Answer: 102 % of Control

Question: And the “Kinase activity, % of Control” value (GSK3α; 25 ug/ml)?
Answer: 11 % of Control

Question: And the “Kinase activity, % of Control” value (GSK3α; 50 ug/ml)?
Answer: −4 % of Control

Question: And the “Kinase activity, % of Control” value (IKKβ; 1 ug/ml)?
Answer: 145 % of Control

Question: What about the “Kinase activity, % of Control” value (IKKβ; 5 ug/ml) of the same compound?
Answer: 118 % of Control

Question: And the “Kinase activity, % of Control” value (IKKβ; 25 ug/ml)?
Answer: 61 % of Control

Question: What about the “Kinase activity, % of Control” value (IKKβ; 50 ug/ml) of the same compound?
Answer: 44 % of Control

Question: What about the “Kinase activity, % of Control” value (TBK1; 1 ug/ml) of the same compound?
Answer: 104 % of Control

Question: And the “Kinase activity, % of Control” value (TBK1; 5 ug/ml)?
Answer: 71 % of Control

Question: What about the “Kinase activity, % of Control” value (TBK1; 25 ug/ml) of the same compound?
Answer: 45 % of Control

Question: What about the “Kinase activity, % of Control” value (TBK1; 50 ug/ml) of the same compound?
Answer: 42 % of Control

Question: What about the “Kinase activity, % of Control” value (CDK1/cyclinB; 1 ug/ml) of the same compound?
Answer: 118 % of Control

Question: What about the “Kinase activity, % of Control” value (CDK1/cyclinB; 5 ug/ml) of the same compound?
Answer: 103 % of Control

Question: And the “Kinase activity, % of Control” value (CDK1/cyclinB; 25 ug/ml)?
Answer: 46 % of Control

Question: What about the “Kinase activity, % of Control” value (CDK1/cyclinB; 50 ug/ml) of the same compound?
Answer: 18 % of Control
